One compound from patent publication US20030088077A1, “Metal chelated dyestuff for inkjet recording and aqueous inkjet recording liquid using the same” (MITSUBISHI CHEMICAL CORPORATION, priority 1999, published 2003) can be followed below.

A short description of series [1]: Indoor discoloring and fading property of a printed image (ozone resistance). In kind it is physicochemical. Conditions: ozone concentration 3 ppm, humidity 50 to 60%, 2 hours, light-shielded; specialized photoprint paper. How it is done: (b) Indoor discoloring and fading property of a printed image (ozone resistance):
In a light-shielded tank having an ozone concentration of 3 ppm, a printed matter was left on standing under a humidity of 50 to 60% for 2 hours, and the degree of discoloring and fading before and after the standing was measured by Macbeth densitometer (Gretag Macbeth SPM50, manufactured by Macbeth), and quantified as the form of a ΔE value. In the case of the specialized photoprint paper, a good result was obtained at the above measurement wherein the ΔE value was 11.2.

The nature of series [2]: Light resistance of a recorded image (xenon fade-meter). Conditions: 150 to 160 kJ/m^2 for 80 hours, specialized photoprint paper, larger value = more fading. Type of series: physicochemical. How it is done: (a) Light resistance of a recorded image:
Using a xenon fade-meter (manufactured by Atlas), a recording paper was irradiated at an irradiation energy of 150 to 160 kJ/m^2 for 80 hours, and the degree of discoloring and fading before and after the irradiation was measured by Macbeth densitometer (Gretag Macbeth SPM50, manufactured by Macbeth), and quantified as the form of a ΔE value. Incidentally, the ΔE value is a numerical value expressing the degree of discoloring and fading. That is, the larger the value is, the larger the degree of discoloring and fading is and the lower the light fastness of the image is. In the case of the specialized photoprint paper, a good result was obtained at the above measurement wherein the ΔE value was 2.1.

With `N#Cc1nc(/N=N/c2ccc(N(CCC(=O)[O-])CCC(=O)[O-])cc2N)[nH]c1C#N.[Na+].[Na+]` [Comparative dyestuff b], the “Indoor discoloring & fading property (ΔE)” value in series [1] amounted to 4.3. Besides, the “Light resistance (ΔE)” value in series [2] came out at 7.0.
